Measurements published in paper doi:10.1101/2025.09.24.678246 (bioRxiv, 2025).
Values after ≈ are worked out from the molar mass of the structure shown. Values joined by “and” are separate entries in the source; they are usually repeats but may differ in a detail not shown here. Equal entries are not always repeated. Where two headings read alike, the source gives them in different places.

Tests used:
[1] = molecular target: BioA (Mycobacterium tuberculosis, UniProt P9WQ81); experiment: BioA inhibition assay (coupled BioA/BioD fluorescence displacement, IC50); type: biochemical; conditions: 50 nM BioA
[2] = tested on: Mtb H37Rv; experiment: microbe, parasite or virus in culture; type: cell-based, Mycobacterium tuberculosis; conditions: biotin-free medium; for MIC50: Mycobacterium tuberculosis, H37RV
[3] = in vivo; conditions: female, CD-1, mouse; for Vd / clearance / half-life: iv; for AUC(0-inf) / bioavailability: po, 25 mg/kg
[4] = p.o. 25 mg/kg, CD-1 mice
[5] = tested on: Mtb H37Rv; type: in vivo, BALB/c mice; conditions: for bacterial burden per mouse, Fig. 5B: 10 mg/kg
[6] = tested on: Mtb H37Rv; experiment: C48 biotin deficient TB efficacy study; type: in vivo, BALB/c mice; conditions: 25mg/kg
[7] = tested on: M. bovis 0AF2122; experiment: microbe, parasite or virus in culture; type: cell-based; conditions: Mycobacterium tuberculosis variant bovis
[8] = tested on: M. africanum; experiment: MIC screening against M. africanum; type: cell-based; conditions: Mycobacterium tuberculosis, MTBC
[9] = day 7 (values identical to Control: baseline)

BioA, sequence (P9WQ81 whole entry, looked up): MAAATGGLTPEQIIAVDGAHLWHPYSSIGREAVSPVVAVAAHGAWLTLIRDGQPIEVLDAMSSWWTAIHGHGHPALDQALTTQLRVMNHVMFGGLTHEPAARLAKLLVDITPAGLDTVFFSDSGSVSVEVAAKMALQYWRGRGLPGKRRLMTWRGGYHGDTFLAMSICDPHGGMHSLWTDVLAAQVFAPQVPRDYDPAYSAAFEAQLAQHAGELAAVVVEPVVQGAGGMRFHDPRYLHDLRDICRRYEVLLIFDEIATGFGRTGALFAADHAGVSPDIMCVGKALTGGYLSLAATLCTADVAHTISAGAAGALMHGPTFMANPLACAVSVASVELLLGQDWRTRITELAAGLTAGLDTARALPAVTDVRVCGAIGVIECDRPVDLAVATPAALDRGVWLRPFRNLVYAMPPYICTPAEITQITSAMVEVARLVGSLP

With `O=C1CCc2cc(N3CCN(C(=O)c4ccc(F)c(Br)c4)CC3)ccc21` [C21] the IC50 [1] was 0.081 µM, the activity ([1]; C21 1.58114 nM) was 106% and the activity at 0.00158114 µM ([1]; C21 1.58114 nM) was 106%. The activity ([1]; C21 5 nM) was 98% and 96.4%, the activity at 0.005 µM ([1]; C21 5 nM) was 102% and the activity ([1]; C21 15.8114 nM) was 91.7% and 90.1%. The activity at 0.0158114 µM ([1]; C21 15.8114 nM) was 91.3%, the activity ([1]; C21 50 nM) was 59.9% and 51.5% and the activity at 0.05 µM ([1]; C21 50 nM) was 59.5%. For the same molecule, the activity ([1]; C21 158.114 nM) was 31.6% and 29.9%, the activity at 0.158114 µM ([1]; C21 158.114 nM) was 32% and the activity ([1]; C21 500 nM) was 25%. For the same molecule, the activity at 0.5 µM ([1]; C21 500 nM) was 25.1%, the activity ([1]; C21 1581.14 nM) was 18.2% and 16.8% and the activity at 1.58114 µM ([1]; C21 1581.14 nM) was 19.4%. For the same molecule, the activity ([1]; C21 5000 nM) was 7.65% and 7.4%, the activity at 5 µM ([1]; C21 5000 nM) was 8.48% and the MIC50 [2] was 1.9 µM (≈ 0.793 µg/mL). The “increase in potency against Mtb versus 6” value [2] was 6 fold, the Vd [3] was 0.37 L/kg and the clearance [3] was 5.3 mL/min/kg. It also gave a half-life [3] of 49.2 min, an AUC(0-inf) [3] of 108000 ng·h/mL and a bioavailability [3] greater than 100%.

With `CC(=O)c1ccc(N2CCN(C(=O)c3ccc4c(c3)OCO4)CC2)cc1` [compound 6] the plasma concentration ([4]; 0 h) was 0, the plasma concentration ([4]; 3 h, 25 mg/kg) was 32.3 and 18.2 and 24.6 and the plasma concentration ([4]; 24 h) was 1. The IC50 [1] was 0.11 µM, the MIC50 [2] was 12 µM (≈ 4.23 µg/mL) and the Vd [3] was 0.54 L/kg. The clearance [3] was 30.6 mL/min/kg, the half-life [3] was 12 min and the AUC(0-inf) [3] was 460 ng·h/mL. It also gave a bioavailability [3] of 3.4%.

With `CO[C@H]1/C=C/O[C@@]2(C)Oc3c(C)c(O)c4c(O)c(c(/C=N/N5CCN(C)CC5)c(O)c4c3C2=O)NC(=O)/C(C)=C\C=C\[C@H](C)[C@H](O)[C@@H](C)[C@@H](O)[C@@H](C)[C@H](OC(C)=O)[C@@H]1C` [Rifampicin, rifampicin, reference compound] the “bacterial burden per mouse, Fig. 5B” value ([5]; day 14 (values identical to Vehicle Control: baseline)) was 24500 and 14500 and 16500 and 43500 and 12750, the “bacterial burden per mouse, Fig. 5B” value ([5]; day 28) was 8250 and 7500 and 19750 and 6250 and 14250 and the “bacterial burden per mouse, Fig. 5B” value ([5]; day 42) was 2875 and 750 and 950 and 2450 and 2025. For the same molecule, the “spleen CFU” value ([5]; Rifampicin 10mg/kg p.o., Day 42, standard acute model, BALB/c, per mouse) was 0 CFU.

In the case of `NNC(=O)c1ccncc1` [INH, isoniazid, reference compound], the “bacterial burden per mouse, Fig. 5C” value [6, 9] is reported as 360 and 1090 and 400 and 320 and 700 and 200, the “bacterial burden per mouse, Fig. 5D (second organ, not given)” value [6, 9] is reported as 1 and the “bacterial burden per mouse, Fig. 5D (second organ, not given)” value ([6]; day 21) is reported as 1. For the same molecule, the “bacterial burden per mouse, Fig. 5C” value ([6]; day 28) was 1 and the “bacterial burden per mouse, Fig. 5D (second organ, not given)” value ([6]; day 28) was 1.

With `CC(=O)NC[C@H]1CN(c2ccc(N3CCOCC3)c(F)c2)C(=O)O1` [Linezolid, reference compound] the MIC [7] was 1.56 µM (≈ 0.526 µg/mL) and the MIC [8] was 1.56 µM (≈ 0.526 µg/mL).
